Test results published in patent publication US8580965B2, “Substituted sulfonamide compounds” (Gruenenthal GmbH, priority 2006, dated 2013).

How the values were obtained:
[1] = biological target: T1, human B1R receptor (bradykinin 1 receptor) (Homo sapiens, UniProt P46663); experiment: FLIPR Ca2+ assay (Fluo-4) on CHO K1 cells stably transfected with the human B1R gene; % activation and % inhibition at 10 μM; format: cell-based; details: CHO-K1, test substance 10 μM; CHO K1 hB1R cells; Ca2+ inflow after 0.5 nM Lys-Des-Arg9-bradykinin; read-out: B1R antagonism, human [10 μM] % inhibition
T1 construct: host or cells: CHO K1 cells (hB1R cells)
T1 sequence (P46663 1-353): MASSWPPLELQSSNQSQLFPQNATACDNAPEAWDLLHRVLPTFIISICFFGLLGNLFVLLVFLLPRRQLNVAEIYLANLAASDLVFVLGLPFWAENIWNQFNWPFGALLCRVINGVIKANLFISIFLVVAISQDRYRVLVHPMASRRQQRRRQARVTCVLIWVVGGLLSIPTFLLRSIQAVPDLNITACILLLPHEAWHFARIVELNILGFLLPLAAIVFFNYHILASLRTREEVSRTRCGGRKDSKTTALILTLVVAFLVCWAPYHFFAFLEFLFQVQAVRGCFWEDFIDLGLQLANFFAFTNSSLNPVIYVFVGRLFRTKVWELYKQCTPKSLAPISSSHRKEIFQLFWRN
Outline: (§1)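 Fluo-4 Ca2+ flux on FLIPR in stable hB1R or rB1R CHO K1 lines, two additions. Agonism: 10 µM compound versus 0.5 nM Lys-Des-Arg9-BK (human) or 100 nM Des-Arg9-BK (rat); antagonism: same agonists applied 10 min later, suppression expressed against maximum achievable inhibition.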

[2] = biological target: T2, B1R receptor of the rat (bradykinin 1 receptor) (Rattus norvegicus, UniProt P97583); experiment: FLIPR Ca2+ assay (Fluo-4) on CHO K1 cells stably transfected with the B1R gene of the rat; % activation and % inhibition at 10 μM; format: cell-based; details: CHO-K1, test substance 10 μM; CHO K1 rB1R cells; Ca2+ inflow after 100 nM Des-Arg9-bradykinin; read-out: B1R antagonism, rat [10 μM] % inhibition
T2 construct: host or cells: CHO K1 cells (rB1R cells)
T2 sequence (P97583 1-337): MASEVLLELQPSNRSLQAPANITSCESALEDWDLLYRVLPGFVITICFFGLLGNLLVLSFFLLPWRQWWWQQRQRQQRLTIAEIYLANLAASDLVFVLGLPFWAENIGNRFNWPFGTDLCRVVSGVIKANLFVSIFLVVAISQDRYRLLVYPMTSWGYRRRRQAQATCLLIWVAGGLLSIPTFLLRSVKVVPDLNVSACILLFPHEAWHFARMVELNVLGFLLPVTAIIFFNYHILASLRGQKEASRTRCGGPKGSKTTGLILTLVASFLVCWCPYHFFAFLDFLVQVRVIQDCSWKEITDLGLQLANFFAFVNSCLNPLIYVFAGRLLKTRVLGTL
Outline: as §1

SMILES | inhibition at 10 µM [1] [%] | inhibition at 10 µM [2] [%]
O=C(COCC1CCCCN1S(=O)(=O)c1ccccc1C(F)(F)F)N1CCC(O)(c2ccccc2)CC1 (stereo not shown) [Example 175, 1-(4-hydroxy-4-phenylpiperidin-1-yl)-2-((1-(2-(trifluoromethyl)phenylsulfonyl)piperidin-2-yl)methoxy)ethanone] | 86 | 104
O=C(COCC1CCCCN1S(=O)(=O)c1ccccc1C(F)(F)F)N1CCC(O)(Cc2ccccc2)CC1 (stereo not shown) [Example 176, 1-(4-benzyl-4-hydroxypiperidin-1-yl)-2-((1-(2-(trifluoromethyl)phenylsulfonyl)piperidin-2-yl)methoxy)ethanone] | 91 | 102
O=C(COCC1CCCCN1S(=O)(=O)c1ccccc1C(F)(F)F)N1CCC(O)(c2cccc(C(F)(F)F)c2)CC1 (stereo not shown) [Example 177, 1-(4-hydroxy-4-(3-(trifluoromethyl)phenyl)piperidin-1-yl)-2-((1-(2-(trifluoromethyl)phenylsulfonyl)piperidin-2-yl)methoxy)ethanone] | 101 | 104
O=C(COCC1CCCCN1S(=O)(=O)c1ccccc1C(F)(F)F)N1CCC(O)(c2ccc(Cl)c(C(F)(F)F)c2)CC1 (stereo not shown) [Example 178, 1-(4-(4-chloro-3-(trifluoromethyl)phenyl)-4-hydroxypiperidin-1-yl)-2-((1-(2-(trifluoromethyl)phenylsulfonyl)piperidin-2-yl)methoxy)ethanone] | 89.4 | 104
COc1cc(C)c(S(=O)(=O)N2CCCC2COCC(=O)N2CCC(O)(c3cccnc3)CC2)c(C)c1 (stereo not shown) [Example 193, 1-(4-hydroxy-4-(pyridin-3-yl)piperidin-1-yl)-2-((1-(4-methoxy-2,6-dimethylphenylsulfonyl)pyrrolidin-2-yl)methoxy)ethanone] | 104 | 96.6
COc1cc(C)c(S(=O)(=O)N2CCC(COCC(=O)N3CCC(O)(c4cccnc4)CC3)C2)c(C)c1 (stereo not shown) [Example 194, 1-(4-hydroxy-4-(pyridin-3-yl)piperidin-1-yl)-2-((1-(4-methoxy-2,6-dimethylphenylsulfonyl)pyrrolidin-3-yl)methoxy)ethanone] | 104 | 82.8
COc1cc(C)c(S(=O)(=O)N2Cc3ccccc3CC2COCC(=O)N2CCC(O)(c3cccnc3)CC2)c(C)c1C (stereo not shown) [Example 195, 1-(4-hydroxy-4-(pyridin-3-yl)piperidin-1-yl)-2-((2-(4-methoxy-2,3,6-trimethylphenylsulfonyl)-1,2,3,4-tetrahydroisoquinolin-3-yl)methoxy)ethanone] | 97.8 | 93.5
O=C(COCC1CCCCN1S(=O)(=O)c1c(Cl)cccc1Cl)N1CCC(O)(c2cccnc2)CC1 (stereo not shown) [Example 196, 2-((1-(2,6-dichlorophenylsulfonyl)piperidin-2-yl)methoxy)-1-(4-hydroxy-4-(pyridin-3-yl)piperidin-1-yl)ethanone] | 103 | 96.5
O=C(COCC1CCCN1S(=O)(=O)c1c(Cl)cccc1Cl)N1CCC(O)(c2cccnc2)CC1 (stereo not shown) [Example 197, 2-((1-(2,6-dichlorophenylsulfonyl)pyrrolidin-2-yl)methoxy)-1-(4-hydroxy-4-(pyridin-3-yl)piperidin-1-yl)ethanone] | 103 | 96.4
Cc1cc(Cl)cc(Cl)c1S(=O)(=O)N(C)CCOCC(=O)N1CCC(O)(c2ccccn2)CC1 [Example 198, 2,4-dichloro-N-(2-(2-(4-hydroxy-4-(pyridin-2-yl)piperidin-1-yl)-2-oxoethoxy)ethyl)-N,6-dimethylphenylsulfonamide] | 106 | 99.2
Cc1cc(S(=O)(=O)N(C)CCOCC(=O)N2CCC(O)(c3cccnc3)CC2)c(Cl)cc1Cl [Example 199, 2,4-dichloro-N-(2-(2-(4-hydroxy-4-(pyridin-3-yl)piperidin-1-yl)-2-oxoethoxy)ethyl)-N,5-dimethylphenylsulfonamide] | 105 | 98.2
Cc1cc(C)c(S(=O)(=O)N2Cc3ccccc3CC2COCC(=O)N2CCC(O)(c3ccc(Cl)cc3)CC2)c(C)c1 (stereo not shown) [Example 200, 1-(4-(4-chlorophenyl)-4-hydroxypiperidin-1-yl)-2-((2-(mesitylsulfonyl)-1,2,3,4-tetrahydroisoquinolin-3-yl)methoxy)ethanone] | 29.8 | 98.1
Cc1cc(C)c(S(=O)(=O)N2Cc3ccccc3CC2COCC(=O)N2CCC(O)(Cc3ccccc3)CC2)c(C)c1 (stereo not shown) [Example 201, 1-(4-benzyl-4-hydroxypiperidin-1-yl)-2-((2-(mesitylsulfonyl)-1,2,3,4-tetrahydroisoquinolin-3-yl)methoxy)ethanone] | 14.9 | 80
COc1cc(C)c(S(=O)(=O)N2CCC(COCC(=O)N3CCC(O)(c4ccc(Cl)cc4)CC3)C2)c(C)c1 (stereo not shown) [Example 202, 1-(4-(4-chlorophenyl)-4-hydroxypiperidin-1-yl)-2-((1-(4-methoxy-2,6-dimethylphenylsulfonyl)pyrrolidin-3-yl)methoxy)ethanone] | 99.2 | 98.5
O=C(COCC1CCCN1S(=O)(=O)c1cc(Cl)sc1Cl)N1CCC(O)(c2cccnc2)CC1 (stereo not shown) [Example 203, 2-((1-(2,5-dichlorothiophen-3-ylsulfonyl)pyrrolidin-2-yl)methoxy)-1-(4-hydroxy-4-(pyridin-3-yl)piperidin-1-yl)ethanone] | 84.2 | 85.1
O=C(COCC1CCCN1S(=O)(=O)c1c(Cl)cc(Cl)cc1Cl)N1CCC(O)(c2cccnc2)CC1 (stereo not shown) [Example 204, 1-(4-hydroxy-4-(pyridin-3-yl)piperidin-1-yl)-2-((1-(2,4,6-trichlorophenylsulfonyl)pyrrolidin-2-yl)methoxy)ethanone] | 104 | 98
COc1cc(C)c(S(=O)(=O)N(CCOCC(=O)N2CCC(O)(c3ccc(Br)cc3)CC2)CC2CC2)c(C)c1C [Example 205, N-(2-(2-(4-(4-bromophenyl)-4-hydroxypiperidin-1-yl)-2-oxoethoxy)ethyl)-N-(cyclopropylmethyl)-4-methoxy-2,3,6-trimethylphenylsulfonamide] | 106 | 100
COc1cc(C)c(S(=O)(=O)N(CCOCC(=O)N2CCC(O)(c3ccccc3)CC2)CC2CC2)c(C)c1C [Example 206, N-(cyclopropylmethyl)-N-(2-(2-(4-hydroxy-4-phenylpiperidin-1-yl)-2-oxoethoxy)ethyl)-4-methoxy-2,3,6-trimethylphenylsulfonamide] | 105 | 100
COc1cc(C)c(S(=O)(=O)N(CCOCC(=O)N2CCC(O)(Cc3ccccc3)CC2)CC2CC2)c(C)c1C [Example 207, N-(2-(2-(4-benzyl-4-hydroxypiperidin-1-yl)-2-oxoethoxy)ethyl)-N-(cyclopropylmethyl)-4-methoxy-2,3,6-trimethylphenylsulfonamide] | 94.2 | 99.2
COc1cc(C)c(S(=O)(=O)N(CCOCC(=O)N2CCC(O)(c3cccc(C(F)(F)F)c3)CC2)CC2CC2)c(C)c1C [Example 208, N-(cyclopropylmethyl)-N-(2-(2-(4-hydroxy-4-(3-(trifluoromethyl)phenyl)-piperidin-1-yl)-2-oxoethoxy)ethyl)-4-methoxy-2,3,6-trimethylphenylsulfonamide] | 106 | 100
COc1cc(C)c(S(=O)(=O)N(CCOCC(=O)N2CCC(O)(c3ccc(Cl)cc3)CC2)CC(C)C)c(C)c1C [Example 209, N-(2-(2-(4-(4-chlorophenyl)-4-hydroxypiperidin-1-yl)-2-oxoethoxy)ethyl)-N-isobutyl-4-methoxy-2,3,6-trimethylphenylsulfonamide] | 105 | 100
COc1cc(C)c(S(=O)(=O)N(CCOCC(=O)N2CCC(O)(c3ccc(Br)cc3)CC2)CC(C)C)c(C)c1C [Example 210, N-(2-(2-(4-(4-bromophenyl)-4-hydroxypiperidin-1-yl)-2-oxoethoxy)ethyl)-N-isobutyl-4-methoxy-2,3,6-trimethylphenylsulfonamide] | 105 | 101
COc1cc(C)c(S(=O)(=O)N(CCOCC(=O)N2CCC(O)(Cc3ccccc3)CC2)CC(C)C)c(C)c1C [Example 211, N-(2-(2-(4-benzyl-4-hydroxypiperidin-1-yl)-2-oxoethoxy)ethyl)-N-isobutyl-4-methoxy-2,3,6-trimethylphenylsulfonamide] | 99.6 | 100
